Data set [1] is described as follows: Metabolic stability in (human) liver microsomes. Particulars: pH 7.4.
The target in data set [2] is Human GLP-1R (Homo sapiens, UniProt P43220). Kind of data set: GLP-1R agonist activity, HTRF cAMP detection in 293A GFP-GLP-1R cells. On the set-up: Emax: dose or concentration left out as unconfirmed. (In general: TR-FRET usually uses a lanthanide donor and a delayed reading to cut background.)
Experimental: GLP-1R-mediated agonist activity was determined by cell-based assays using a homogeneous time-resolved fluorescence (i.e., HTRF)-based cAMP detection kit, which measures the level of cAMP in cells. The method was a competitive immunoassay. It enabled direct pharmacological characterization of compounds acting on Gs-coupled receptors in adherent or suspending cells.
The standard curve of native cAMP or unlabeled cAMP produced by cells competed with d2-labeled cAMP red receptors to bind monoclonal anti-cAMP Eu3+ cryptate donors, and the specific signal was inversely proportional to the concentration of cAMP in standard or tested samples.
Human GLP-1R encoding sequence (NCBI reference sequence NP_002053.3) was subcloned into pEGFP-N1 (tsingke), and the cell line stably expressing the receptor was isolated. The expression density of GLP-1R was confirmed by the expression of GFP observed under a fluorescence microscope.
Cells were collected from a T25 tissue culture flask and centrifuged at room temperature at 1000 rpm for 5 minutes. The cell precipitates were then re-suspended in 1 mL of the stimulating buffer. 20 μL sample of cell suspension was counted on a counter STAR IC 1000 to determine the cell viability and the cell count per mL. The remaining cell suspension was then regulated with the stimulating buffer to deliver 2000 living cells per well using a multi-channel pipette. 5 μL of the cell suspension was added to each well of the plate which already contained the compound. The plate was sealed and incubated at 37° C. with 5% CO2 for 30 minutes.
After 30 minutes of incubation, 5 μL of d2-labeled cAMP and 5 μL of anti-cAMP cryptate (both 1: 20 diluted in the cell lysis buffer) were added to each well of the plate. The plate was then incubated at room temperature for 60 minutes, and the changes of HTRF signal were read with Tecan Spark reader: absorbance values at 340 nm (excitation)/at 615 nm and 665 nm (emission). Raw data were converted into nM cAMP by interpolation from the cAMP standard curve, and the effect in percentage was determined relative to the saturated concentration of the complete agonist GLP-17˜37 (400 nM) contained in each plate. Determination of EC50 was performed based on the agonist dose-response curve, which was analyzed using a four-parameter logical dose-response equation with a curve fitting program.
The test data presented the results in the form of a geometric mean (EC50s) based on the number of repetition times.
Data set [3] deals with hERG potassium channels (Homo sapiens, UniProt Q12809). Kind of data set: Inhibition of hERG potassium channels, whole-cell patch clamp in HEK-293-hERG cells. (In general: Block of hERG is tested as a sign of cardiac risk.)
Sequence of hERG potassium channels (Q12809 whole entry): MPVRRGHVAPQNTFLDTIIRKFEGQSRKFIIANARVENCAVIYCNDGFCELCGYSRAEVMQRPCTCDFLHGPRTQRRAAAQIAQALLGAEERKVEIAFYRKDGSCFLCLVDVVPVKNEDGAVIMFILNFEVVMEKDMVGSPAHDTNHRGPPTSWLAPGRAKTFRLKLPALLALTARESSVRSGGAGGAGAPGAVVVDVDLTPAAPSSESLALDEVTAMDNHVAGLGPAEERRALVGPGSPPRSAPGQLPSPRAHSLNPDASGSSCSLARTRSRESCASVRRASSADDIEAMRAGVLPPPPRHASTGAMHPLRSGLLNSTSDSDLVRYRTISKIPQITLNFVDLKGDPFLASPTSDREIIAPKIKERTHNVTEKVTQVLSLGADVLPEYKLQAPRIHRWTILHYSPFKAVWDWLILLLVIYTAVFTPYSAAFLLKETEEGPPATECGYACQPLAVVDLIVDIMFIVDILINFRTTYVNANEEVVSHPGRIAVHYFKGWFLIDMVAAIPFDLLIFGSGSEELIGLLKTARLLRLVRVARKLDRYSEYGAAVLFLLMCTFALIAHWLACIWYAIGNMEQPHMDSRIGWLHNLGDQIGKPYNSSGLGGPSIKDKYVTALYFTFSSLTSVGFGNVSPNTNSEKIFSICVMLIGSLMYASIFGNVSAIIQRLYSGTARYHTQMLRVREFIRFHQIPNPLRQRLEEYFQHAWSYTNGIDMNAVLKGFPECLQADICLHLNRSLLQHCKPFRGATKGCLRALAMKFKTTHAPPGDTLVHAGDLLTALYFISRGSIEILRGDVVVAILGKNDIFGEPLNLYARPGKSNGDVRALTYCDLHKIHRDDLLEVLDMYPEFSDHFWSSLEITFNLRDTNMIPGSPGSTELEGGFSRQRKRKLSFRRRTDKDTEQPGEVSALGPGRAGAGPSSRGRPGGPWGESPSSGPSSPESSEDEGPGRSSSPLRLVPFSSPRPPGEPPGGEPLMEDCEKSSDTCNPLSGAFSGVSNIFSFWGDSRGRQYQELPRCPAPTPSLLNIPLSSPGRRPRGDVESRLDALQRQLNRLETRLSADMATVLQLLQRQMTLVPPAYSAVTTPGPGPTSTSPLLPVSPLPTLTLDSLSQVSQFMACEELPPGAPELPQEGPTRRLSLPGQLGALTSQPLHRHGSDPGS

Sequence of Human GLP-1R (P43220 24-463): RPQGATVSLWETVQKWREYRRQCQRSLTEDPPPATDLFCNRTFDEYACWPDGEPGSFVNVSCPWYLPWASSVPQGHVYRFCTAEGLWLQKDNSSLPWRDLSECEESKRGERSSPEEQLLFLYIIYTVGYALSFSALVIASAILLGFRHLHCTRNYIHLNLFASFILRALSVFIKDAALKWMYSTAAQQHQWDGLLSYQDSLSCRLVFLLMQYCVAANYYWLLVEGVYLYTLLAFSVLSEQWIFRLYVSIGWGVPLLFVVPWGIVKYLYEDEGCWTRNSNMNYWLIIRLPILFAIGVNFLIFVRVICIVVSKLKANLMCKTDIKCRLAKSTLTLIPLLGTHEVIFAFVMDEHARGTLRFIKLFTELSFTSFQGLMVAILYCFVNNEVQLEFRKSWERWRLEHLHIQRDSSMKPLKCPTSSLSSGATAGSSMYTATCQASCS

In data set [1], `O=C(O)c1ccc2nc(CN3CC=C(c4cccc(OCc5ccc(C(=O)C6CC6)cc5F)n4)CC3)n(C[C@@H]3CCO3)c2c1` [Compound 22, (S)-2-((6-((4-(cyclopropanecarbonyl)-2-fluorobenzyl)oxy)-3′,6′-dihydro-[2,4′-bipyridin]-1′(2′H)-yl)methyl)-1-(oxetan-2-ylmethyl)-1H-benzo[d]imidazole-6-carboxylic acid] registered a half-life at 1 μM of 1 h. Besides, it took 2.07 nM to reach a half-maximal effect in data set [2] (EC50). The Emax in data set [2] (293A) was determined as 83.4%. For the same compound, the results for the “hERG (IR)” value in data set [3] (inhibition rate of hERG tail current at 1 μM) and in data set [3] (inhibition rate of hERG tail current at 10 μM) were 0.92% and 23.50%, respectively.

As a reminder, the half-life is the time in which the quantity being followed falls by half. A word on the EC50: it is the concentration at which the effect is half-maximal. For orientation: Emax means the maximal effect, on the per cent scale that the assay sets.

The record behind these values is patent US12668587B2, “Benzimidazolone GLP-1 receptor agonist and use thereof” (HANGZHOU ZHONGMEIHUADONG PHARMACEUTICAL CO., LTD., priority 2020, dated 2026).
